# Values joined by “and” are separate entries in the source; they are usually repeats but may differ in a detail not shown here. Equal entries are not always repeated. Where two headings read alike, the source gives them in different places.
# Tests used:
# [1] = mice
# Procedure: Each tracer (180 MBq/3.0–13.4 nmol) was intravenously injected into mice, and 15 and 30 min later the animals were killed by cervical dislocation (n = 3). Blood was removed by heart puncture using a heparinized syringe, and the brain was removed. The blood was centrifuged at 7,000×g for 1 min at 4°C to obtain plasma, which was denatured with 5 volume of CH3CN. The mixture was centrifuged under the same conditions, and the precipitate was re-suspended in 0.5 ml of CH3CN, followed by centrifugation. This procedure was repeated three times. The cerebral cortex (approximately 200 mg) was homogenized in 1.0 ml of 50% CH3CN. The homogenate was then treated as described above. The combined supernatant was diluted with 2 volumes of water and then analyzed by HPLC with a radioactivity detector (FLO-ONE 150TR; Packard Instrument, Meriden, CT). A Radial-Pak C18 column equipped with an RCM 8×10 module (8 mm ×100 mm; Waters, Milford, MA) was used with a mixture of CH3CN/H2O/triethyl amine (40/60/0.1 for [^11C]A-582941 and 70/30/0.1 for [^11C]A-844606, v/v/v) as the mobile phase at a flow rate of 2 ml/min. The elution profile was monitored with a radioactivity detector. The retention times of [^11C]A-582941 and [^11C]A-844606 were 6.4 and 8.8 min, respectively. The recovery in the eluate of the injected radioactivity was essentially quantitative.
# [2] = target: α7 nAChRs (Macaca mulatta, UniProt Q866A2); conditions: rhesus monkey, in vivo
# Text: Four young-adult male rhesus monkeys (Macaca mulatta) weighing from 4 to 6 kg were used for PET measurements. The monkeys were trained for the protocol as described previously. The magnetic resonance images (MRI) of all monkeys were obtained with a Toshiba MRT-50A/II (0.5T) under anesthesia with pentobarbital. The stereotactic coordinates of PET and MRI were adjusted based on the orbitomeatal (OM) line with monkeys secured in a specially designed head holder. At least 1 month before the PET study, an acrylic plate, with which the monkey was fixed to the monkey chair, was attached to the head under pentobarbital anesthesia as described previously.
# PET data were collected on a high-resolution PET scanner (SHR-7700; Hamamatsu Photonics K.K., Hamamatsu, Japan). The camera consists of 16 detector rings and acquires 20 slices at a center-to-center interval of 3.6 mm with a transaxial resolution of 2.6 mm full width at half maximum. After an overnight fast, the monkey was fixed to the monkey chair with stereotactic coordinates aligned parallel to the OM line. A cannula was implanted in the posterior tibial vein, and [^11C]A-582941 or [^11C]A-844606 (1152–1336 MBq/26.8–63.1 nmol) was injected into the monkey through the venous cannula. PET images were acquired over 91 min (10 sec ×6 frames, 30 sec ×6 frames, 1 min ×12 frames, and 3 min ×25 frames). PET scans were reconstructed using a filtered backprojection method in a 100×100 matrix, with a voxel size of 1.2 mm ×1.2 mm ×3.6 mm. Summed image of late phase (from 70 to 91 min post-injection) was calculated as a static SUV (activity/ml tissue)/(injected activity/g body weight) image. Each MRI was coregistered to an early (from 0 to 20 min) summed image using normalized mutual information, and ROIs were placed on the summed image with reference to the coregistered MRI. Three monkeys underwent [^11C]A-582941 scan morning, and then two of the three monkeys underwent [^11C]A-844606 afternoon (baseline). Within 6 months the last one of the three monkeys underwent two [^11C]A-844606 scans in the baseline (morning) and blocking (afternoon) conditions 30 min after injection of SSR180711 (5.0 mg/kg, i.v.), and the fourth monkey underwent two [^11C]A-582941 scans in the baseline and blocking conditions in the same way.
# For the semi-quantitative analysis of PET data, arterial samples were obtained every 8 sec from injection to 64 sec, and then again at 1.5, 2.5, 4, 6, 10, 20, 30, 45, 60, and 90 min after each tracer injection. Blood samples were centrifuged to separate the plasma, weighed, and subjected to radioactivity measurement. For metabolite analysis, methanol was added to some plasma samples, the resulting solutions were centrifuged, and the supernatants were developed with TLC plates (AL SIL G/UV; Whatman, Kent, UK) using a mobile phase of dichloromethane/diethyl ether/ethanol/triethylamine (20/20/2/2, v/v/v/v). At each sampling time point, the ratio of radioactivity in the unmetabolized fraction to that in the total plasma (metabolite plus unmetabolite) was determined using a phosphoimaging plate (BAS-1500 MAC; Fuji Film Co., Tokyo, Japan). The pTACs corrected for metabolite were obtained. The tTACs in each region of interest (ROI) in the brain were calculated as the %ID/ml or as a standardized uptake value (SUV), (activity/ml tissue)/(injected activity/g body weight). Using the tTACs and the metabolite-corrected pTAC, the V T for each tracer was evaluated by Logan graphical analysis.
# Sequence of α7 nAChRs (Q866A2 23-502): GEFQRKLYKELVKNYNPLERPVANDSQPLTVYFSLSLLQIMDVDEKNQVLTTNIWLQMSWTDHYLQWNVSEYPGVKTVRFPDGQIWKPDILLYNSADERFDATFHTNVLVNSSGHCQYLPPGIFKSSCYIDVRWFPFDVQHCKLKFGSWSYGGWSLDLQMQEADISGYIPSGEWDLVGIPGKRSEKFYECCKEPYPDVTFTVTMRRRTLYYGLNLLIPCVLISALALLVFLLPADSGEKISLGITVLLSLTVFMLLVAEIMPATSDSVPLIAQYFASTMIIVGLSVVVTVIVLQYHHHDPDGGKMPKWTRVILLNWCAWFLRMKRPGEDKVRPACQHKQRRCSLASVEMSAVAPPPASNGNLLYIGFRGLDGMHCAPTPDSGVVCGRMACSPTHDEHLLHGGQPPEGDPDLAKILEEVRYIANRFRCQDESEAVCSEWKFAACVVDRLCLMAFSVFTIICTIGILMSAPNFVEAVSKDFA
smiles,measurement,setting,value
"[11CH3]N1CC2CN(c3ccc(-c4ccccc4)nn3)CC2C1 (centres unmarked) [[^11C]A-582941, 2-[^11C]Methyl-5-[6-phenylpyridazine-3-yl]octahydropyrrolo[3,4-c]pyrrole]",percentage of the unchanged form in the brain,[1]; 15 min after injection,95.4±1.9%
same,percentage of the unchanged form in the plasma,[1]; 15 min after injection,40.5±7.1%
same,percentage of the unchanged form in the brain,[1]; 30 min after injection,97.4±0.8%
same,percentage of the unchanged form in the plasma,[1]; 30 min after injection,26.8±6.6% and 26.8%
same,"V T Baseline, Cerebellum",[2]; male,25.4 mL/g
same,"V T Baseline, Frontal cortex",[2]; male,34.5 mL/g
same,"V T Baseline, Hippocampus",[2]; male,31.6 mL/g
same,"V T Baseline, Thalamus",[2]; male,34.0 mL/g
same,"V T SSR180711, Cerebellum",[2]; male,17.3 mL/g
same,"V T SSR180711, Frontal cortex",[2]; male,23.0 mL/g
same,"V T SSR180711, Hippocampus",[2]; male,20.4 mL/g
same,"V T SSR180711, Thalamus",[2]; male,23.6 mL/g
same,"V T, cerebellum (mean ± SD)",[2]; male,23.0±3.4
same,"V T, cerebellum (range)",[2]; male,18.0–25.4
same,"V T, frontal cortex (mean ± SD)",[2]; male,29.2±4.7
same,"V T, frontal cortex (range)",[2]; male,23.2–34.5
same,"V T, hippocampus (mean ± SD)",[2]; male,28.0±3.8
same,"V T, hippocampus (range)",[2]; male,22.8–31.6
same,"V T, thalamus (mean ± SD)",[2]; male,30.4±4.1
same,"V T, thalamus (range)",[2]; male,24.6–34.0
same,"time of peak radioactivity in the four brain regions (thalamus, frontal cortex, hippocampus, cerebellum)",[2]; male,10 min
same,"% decrease of V T, Cerebellum",[2],32.0%
same,"% decrease of V T, Frontal cortex",[2],33.4%
same,"% decrease of V T, Hippocampus",[2],35.5%
same,"% decrease of V T, Thalamus",[2],30.5%
same,decrease of V T by pretreatment with SSR180711,[2],~30%

# Source: article PMC2813863, “In Vivo Evaluation of α7 Nicotinic Acetylcholine Receptor Agonists [^11C]A-582941 and [^11C]A-844606 in Mice and Conscious Monkeys” (PLoS ONE, 2010)
